Entries after “also recorded” stand apart in the source; their conditions may differ.
Columns and labels:
[1] = biological target: VP30/NP interface (VP30_110–272 protein, NP-FITC peptide) (Zaire ebolavirus, UniProt Q05323); assay: biochemical; format: binding, Ebola virus
VP30_110–272 protein [2] = biological target: T1, VP30_110–272 protein (Zaire ebolavirus, UniProt Q05323); assay: biochemical; format: binding, Ebola virus
VP30_110–272 protein [3] = biological target: T1, VP30_110–272 protein; format: binding, Ebola virus
VP30 protein = VP30 protein (Zaire ebolavirus, UniProt Q05323); format: binding, Ebola virus
[4] = tested on: EBOV minigenome in Huh7-4P cells; format: cell-based, Ebola virus
[5] = tested on: EBOV minigenome in Huh7-4P cells; format: cell-based, Ebola virus; remark: listed apart in the source
[6] = biological target: NP-FITC (NP-derived VP30-binding peptide labelled with FITC) (Ebola virus (EBOV)); assay: fluorescence polarisation
[7] = biological target: T2, Ebola virus VP30 110-272 protein (MBP tag removed) (Ebola virus (EBOV)), Q05323; assay: fluorescence polarisation
T2 chain: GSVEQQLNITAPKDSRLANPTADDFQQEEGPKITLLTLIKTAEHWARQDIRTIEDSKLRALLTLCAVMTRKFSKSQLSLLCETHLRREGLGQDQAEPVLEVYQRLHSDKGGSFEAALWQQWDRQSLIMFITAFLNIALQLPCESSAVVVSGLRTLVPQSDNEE

For O=C(O)c1cnc(O)nc1O [2,4-dihydroxypyrimidine-5-carboxylic acid], the “competitive FP assay, result in words” value [1] was “failed in the FP concentration gradient experiment”.

For CCCCCCCCCCCC1=C(O)C(=O)C=C(O)C1=O [Embelin], the Kd (VP30_110–272 protein [2]) was 4.62 µM, the IC50 ([1]; IC50, competitive FP assay) was 33.2 µM and the “effect on stability / melting temperature (Tm) of VP30, TSA” value (VP30_110–272 protein [3]) was “can specifically bind to VP30 and change its melting temperature Tm; also recorded: increased the stability of VP30 at pH 6.5, 7.0, 7.5 and 8.0”.

With Cc1cc(SCc2sc(-c3ccc(C(F)(F)F)c(F)c3)nc2C)ccc1OCC(=O)O [GW0742] the “binding to VP30 already bound to Embelin or 8-gingerol, synergy SPR” value (VP30 protein) was “a reduction in binding was observed”, the “synergistic effect, in words” value [4] was “does not exhibit obvious synergistic effects” and the “antiviral activity in MG assay, in words” value [5] was “good antiviral activity”.

B1: Ebola virus VP30 110-272 protein (MBP tag removed), Q05323 110-272 (domain or fragment)
chain: T2 chain
For B1, the IC50 [6] was 3.07 µM.

B2: unlabeled NP peptide (NP-derived VP30-binding peptide) (peptide)
chain: PTVAPPAPVYR
modifications: not checked
For B2, the IC50 [7] was 330 nM.

From publication PMC9909651 (Acta Pharmacologica Sinica, 2023)
